Earlier results on two compounds are cited in patent publication US11160765B2, “Compositions and methods of treating fungal infections of the nails” (KBR Incorporated, priority 2018, dated 2021).

The subject of this data set is Candida albicans.

SMILES strings stand for the structures.

On to `C=CCSSCC=C` [diallyl disulphide (DADS0, diallyl disulphide], for which the “proteinase, phospholipase secretion, and dimorphism in Candida albicans” value is “significantly inhibit”.

Regarding `C=CCSCC=C` [diallyl sulphide (DAS), diallyl sulphide], the “proteinase, phospholipase secretion, and dimorphism in Candida albicans” value was “significantly inhibit”.
